The subject of assay [1] is airway constriction. The conditions noted are these: cited from earlier work.
For assay [2], the system named is isolated guinea pig ileum. The experiment in a line: Antileukotriene D4 Action (In vitro Test): isotonic contractive response of isolated ileum to leukotriene D4. In kind it is cell-based. Conditions: Cavia porcellus, 0.5 h, Krebs buffer 37° C., 30 minutes incubation with test compound, read-out: Anti-LTD4 action (IC50 value). The method, then: Antileukotriene D4 Action (In vitro Test)
An isolated guinea pig ileum was cut into about 2 cm lengths. Each ileum piece was suspended in a 20-ml organ bath filled with the Krebs buffer. […] The Krebs buffer was controlled at 37° C., through which a mixed gas (95%O2 -5%CO2) was bubbled. First, leukotriene D4 was added to an organ bath to measure its dose-response. After the ileum piece was washed several times with the buffer, a test compound (will be identified by its example number; this will apply likewise hereinafter) of a predetermined specific concentration was added.

Assay [3] addresses T1, Leukotriene D4 Receptor (Cavia porcellus, UniProt Q2NNR5).
T1 construct: guinea pig pulmomembranous protein; from tissue; host or cells: guinea pig lung membranes
T1 sequence (Q2NNR5 1-340): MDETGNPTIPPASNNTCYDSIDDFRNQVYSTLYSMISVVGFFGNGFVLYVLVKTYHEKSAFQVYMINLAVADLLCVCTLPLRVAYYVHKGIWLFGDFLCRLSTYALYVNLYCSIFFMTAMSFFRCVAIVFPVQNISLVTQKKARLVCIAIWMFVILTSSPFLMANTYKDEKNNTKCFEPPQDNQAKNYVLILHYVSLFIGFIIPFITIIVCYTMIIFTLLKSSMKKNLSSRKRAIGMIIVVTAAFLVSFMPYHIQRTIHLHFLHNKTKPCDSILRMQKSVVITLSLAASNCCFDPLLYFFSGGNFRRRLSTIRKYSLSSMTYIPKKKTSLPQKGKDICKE
Briefly: Leukotriene D4 Receptor Binding Inhibition Test. Further details: species or system guinea pig. The conditions noted are these: for inhibition at 10 µM: read-out: LTD4 receptor, inhibition rate (%) at a high concentration. How it is done: An ice-cold tris hydrochloride/sodium chloride buffer (10 mM/100 mM, pH 7.5) was added to terminate the reaction, followed by immediate filtration through a Wattman CF/C filter. The filter was washed twice with 20 ml aliquots of the ice-cold buffer. The radio-activity of the residue was measured by a liquid scintillation counter. […] Using the Cheng-Prusoff formula, a dissociation constant (KD) was calculated from the IC50.

Setting [4] is: read-out: LTD4 receptor, dissociation constant KD.

Where a name gives a salt, the structure may show the parent alone. Read-outs that look alike come from different tables or passages of the source.

With `CCCCC/C=C\C\C=C/C=C/C=C/[C@@H](SC[C@H](N)C(=O)O)[C@@H](O)CCCC(=O)O` [LTE4], the “duration of airway constriction” value in assay [1] (compared with that caused by the other leukotrienes) was “long lasting”. Further, in assay [1] (compared with the other leukotrienes), the “activity compared with the other leukotrienes” value is “lower activities”. The IC50 is the concentration that inhibits the measured activity by half. Regarding `COc1ccc(C(=O)O)cc1C(=O)/C=C/c1ccc(OCc2ccc3ccccc3n2)cc1` [Example 29, 5'-Carboxy-2'-methoxy-4-[(2-quinolyl)methoxy]chalcone], the IC50 in assay [2] is 290 nM.

For the molecule `CCOCCn1c(COc2cccc(C=CC(=O)c3ccc(C(=O)O)cc3O)c2)nc2ccccc21` [Example 37, 4'-Carboxy-3-[(1-ethoxyethyl-benzimidazol-2-yl)methoxy]-2'-hydroxychalcone.HCl], the inhibition at 10 µM in assay [3] worked out at 26%. As usually defined, the Kd is the constant that tells how readily two partners part at equilibrium. As for `O=C(O)c1cccc(C(=O)/C=C/c2ccc(OCc3ccc4ccccc4n3)cc2)c1O` [Example 7, 3'-Carboxy-2'-hydroxy-4-[(2-quinolyl)methoxy]chalcone], the Kd in assay [3] (setting [4]) turned out to be 307 nM. Still for that read-out and setting: next, `O=C(O)c1cc(F)cc(C(=O)/C=C/c2ccc(OCc3ccc4ccccc4n3)cc2)c1O` [Example 8, 3'-Carboxy-5'-fluoro-2'-hydroxy-4-[(2-quinolyl)methoxy]chalcone]: 396 nM. Regarding `N#Cc1ccc(O)c(C(=O)/C=C/c2cccc(OCc3ccc4ccccc4n3)c2)c1` [Example 58, 5'-Cyano-2'-hydroxy-3-[(2-quinolyl)methoxy]chalcone], the inhibition at 10 µM in assay [3] worked out at 38%. Consider “[^3 H]leukotriene D4 [reference compound]”, for which the “slope of Hill plot” value in assay [3] ([^3 H]leukotriene D4 binding) came to 0.99. Also, the Kd in assay [3] (read-out: dissociation constant (KD) of [^3 H]leukotriene D4, radioligand, guinea pig pulmomembranous protein) was 0.262 nM. For the molecule `CCCCC/C=C\C\C=C/C=C/C=C/[C@@H](SC[C@H](NC(=O)CC[C@H](N)C(=O)O)C(=O)NCC(=O)O)[C@@H](O)CCCC(=O)O` [LTC4], in assay [1] (when inhaled, compared with histamine), the “effects on airway constriction relative to histamine” value is given as 1,000 times. For the molecule `N#Cc1cccc(C(=O)/C=C/c2cccc(OCc3ccc4ccccc4n3)c2)c1` [Example 36, 3'-Cyano-3-(2-quinolylmethoxy)-chalcone], the inhibition at 10 µM in assay [3] was 6%. As to `O=C(O)c1cc(Cl)cc(C(=O)/C=C/c2ccc(OCc3ccc4ccccc4n3)cc2)c1O` [Example 9, 3'-Carboxy-5'-chloro-2'-hydroxy-4-[(2-quinolyl)methoxy]chalcone], in assay [3] (setting [4]), the Kd worked out at 732 nM. As to `O=C(O)c1ccc(O)c(C(=O)/C=C/c2ccccc2OCc2ccc3ccccc3n2)c1` [Example 3, 5'-Carboxy-2'-hydroxy-2-[(2-quinolyl)methoxy]chalcone], the inhibition at 10 µM in assay [3] was found to be 18%. The same measure, in the same setting: next, `O=C(O)c1ccc(O)c(C(=O)/C=C/c2ccccc2OCc2ccccc2)c1` [Example 6, 2-Benzyloxy-5'-carboxy-2'-hydroxychalcone]: 0%. In the case of `O=C(/C=C/c1ccc(OCc2ccc3ccccc3n2)cc1)c1cc(-c2nnn[nH]2)ccc1O` [Example 19, 2'-Hydroxy-4-[(2-quinolyl)-methoxy]-5'-(5-tetrazolyl)-chalcone], the IC50 in assay [2] turned out to be 67 nM. For `CCCCOc1ccc(C(=O)O)cc1C(=O)C=Cc1ccc(OCc2ccc3ccccc3n2)cc1` [Example 32, 2'-n-Butoxy-5'-carboxy-4-(2-quinolylmethoxy)chalcone.HCl], the inhibition at 10 µM in assay [3] amounted to 41%. Still for that read-out and setting: next, `O=C(/C=C/c1ccc(OCc2ccc3ccccc3c2)cc1)c1cc(-c2nnn[nH]2)ccc1O` [Example 26, 2'-Hydroxy-4-(2-naphthyl-methoxy)-5'-(5-tetrazolyl)-chalcone]: 4%; `CCOC(=O)c1ccc(O)c(C(=O)C=Cc2ccc(OCc3ccc4ccccc4n3)cc2)c1` [Example 17]: 16%. For `O=C(O)c1cccc(C(=O)/C=C/c2cccc(C=Cc3ccc4ccccc4n3)c2)c1O` [Example 40, 3'-carboxy-2'-hydroxy-3-[(2-quinolyl)-ethenyl]chalcone], the IC50 in assay [2] was found to be 120 nM.

Take `O=C(O)c1ccc(O)c(C(=O)/C=C/c2ccc(OCc3ccccc3)cc2)c1` [Example 4, 4-Benzyloxy-5'-carboxy-2'-hydroxychalcone]: the inhibition at 10 µM in assay [3] was 23%. Consider `CCOCCn1c(COc2ccc(C=CC(=O)c3cc(-c4nn[nH]n4)ccc3O)cc2)nc2ccccc21` [Example 23], for which the IC50 in assay [2] came to 480 nM.

Take `N#Cc1cccc(C(=O)/C=C/c2ccc(OCc3ccc4ccccc4n3)cc2)c1` [Example 35, 3'-cyano-4-(2-quinolylmethoxy)-chalcone]: the inhibition at 10 µM in assay [3] is 8%.

These data come from patent US6046212A, “Chalcone derivatives and drugs containing the same” (Kowa Co., Ltd., priority 1996, dated 2000).
